# Measurements reported in patent US20230372492A1, “DRUGS CONJUGATED WITH HEXOSE PHOSPHATE AND METHODS OF MAKING AND USING SAME” (MISSISSIPPI STATE UNIVERSITY, priority 2020, published 2023).
# Several values for one entry are separate records, joined by “and”; a condition that tells them apart may be missing. Identical values can stand only once. Like-named read-outs stand apart in the source and are kept apart here.
# Key:
# [1] = test system: bioluminescent E. coli strain; test: Mouse urinary tract infection with bioluminescent E. coli; format: in vivo, C57BL/6 mice; details: 80 mg/kg intraperitoneal at 2, 24 and 48 hours; 72 hours after infection
# Description: C57BL/6 mice were transurethrally inoculated with bioluminescent E. coli strain and treated with PBS, linezolid (80 mg/kg), and linezolid conjugated with 3FG6P (80 mg/kg) at 2, 24, and 48 hours after inoculation. 72 hours after inoculation, the progress of the infection was monitored using a IVIS Lumina XR small animal imaging system and the bacterial burden in the kidney and bladder was determined by a plate counting method.
# To test the in vivo antimicrobial activity of linezolid and linezolid conjugated with 3FG6P, clinical E. coli strains were constructed that constitutively express a bioluminescent light signal using pLuxABCDE plasmid. See Karsi A. Lawrence M L. Broad host range fluorescence and bioluminescence expression vectors for Gram-negative bacteria. Plasmid. 2007; 57(3):286-95. Epub 2007/01/09. doi: 10.1016/j.plasmid.2006.11.002. PubMed PMID: 17207855 for real time monitoring of the progress of infections. Six- to eight-week old female C57BL/6 mice were purchased from Harlan laboratory and were housed and maintained according to the protocol approved by the institutional animal care and use committee at Mississippi State University. Animals (n=6/group) were transurethrally infected with 50 μl of bioluminescent E. coli strain suspended in PBS (2×10^9 CFU/ml). Animals were treated with an intraperitoneal injection of linezolid (80 mg/kg), linezolid conjugated with 3FG6P (80 mg/kg) or PBS control at 2, 24, and 48 hours after infection. The progress of the infection was monitored by measuring the bioluminescent light signal using an IVIS Lumina X R small animal imaging system. After 72 hours infection, animals were humanely euthanized and the bladder and kidney samples were collected, homogenized, and serially diluted, and the serial dilutions were plated on blood agar to determine the bacterial burden. A transurethral inoculation of E. coli established persistent infections in the kidney and bladder in the absence of antibiotic treatment (PBS control group). The mean bacterial counts in the kidney and bladder were log10 6.328±0.132 and log10 6.171+0.155 CFU/g, respectively (FIG. 12).
# [2] = test system: Enterobacter cloacae ATCC 13047; test: MIC by broth microdilution (CLSI M07-A9); format: cell-based; details: Muller Hinton broth, 37° C.
# Description: (§1) To test the antimicrobial activity of linezolid and linezolid conjugated with 3FG6P (Lzd-3FG6P) against Gram-positive and Gram-negative pathogens, the pathogens Staphylococcus aureus ATCC 25923, Klebsiella pneumoniae ATCC 35657, Acinetobacter baumannii ATCC BAA1605, Escherichia coli ATCC 25922, Enterobacter cloacae ATCC 13047, Enterobacter aerogenes ATCC13048, and Salmonella typhimurium ATCC 14028 were used. The minimal inhibitory concentration (MIC) was determined using broth microdilution following the instructions of Clinical and Laboratory Standards Institute (CLSI) document M07-A9 (Clinical and Laboratory Standards Institute. 2012. M07-A9. Methods for dilution antimicrobial susceptibility tests for bacteria that grow aerobically: approved standard. 9th ed. Clinical and Laboratory Standards Institute, Wayne, PA). Briefly, these bacterial strains were grown in Muller Hinton broth (MHB) until exponential phage (OD600<1.0). The exponentially grown testing bacteria were diluted to an OD600 of 0.01 in MHB and aliquoted in a 96 well plate. Stocks of linezolid (Lzd) and linezolid conjugated with 3FG6P (Lzd-3FG6P) were prepared at 10 mg/ml in DMSO which was diluted by two-fold serial dilutions from 64 μg/ml to 2 μg/ml (final concentration) and added to the 96 well plate. A DMSO control (0 μg/ml in the figures) was included. The plate was incubated at 37° C. and the growth of bacteria was monitored by measuring OD600 using a Cytation 5 plate reader (BioTek).
# [3] = test system: Klebsiella pneumoniae ATCC 35657; test: MIC by broth microdilution (CLSI M07-A9); format: cell-based; details: Muller Hinton broth, 37° C.
# Description: as §1
# [4] = test system: Salmonella typhimurium ATCC 14028; test: MIC by broth microdilution (CLSI M07-A9); format: cell-based; details: Muller Hinton broth, 37° C.
# Description: as §1
# [5] = test system: Acinetobacter baumannii ATCC BAA1605; test: MIC by broth microdilution (CLSI M07-A9); format: cell-based; details: Muller Hinton broth, 37° C.
# Description: as §1
# [6] = test system: Enterobacter aerogenes ATCC13048; test: MIC by broth microdilution (CLSI M07-A9); format: cell-based; details: Muller Hinton broth, 37° C.
# Description: as §1
# [7] = test system: Staphylococcus aureus ATCC 25923; test: MIC by broth microdilution (CLSI M07-A9); format: cell-based; details: Muller Hinton broth, 37° C.
# Description: as §1
# [8] = test system: Escherichia coli ATCC 25922; test: MIC by broth microdilution (CLSI M07-A9); format: cell-based; details: Muller Hinton broth, 37° C.
# Description: as §1
# [9] = test system: Gram positive and Gram-negative pathogens; test: Broth microdilution growth inhibition, summary over all tested pathogens; format: cell-based
# Description: as §1, with “Stocks of linezolid (Lzd) and linezolid conjugated with 3FG6P (Lzd-3FG6P) were prepared at 10 mg/ml in DMSO which was diluted by two-fold serial dilutions from 64 μg/ml to 2 μg/ml (final concentration) and added to the 96 well plate. A DMSO control (0 μg/ml in the figures) was included.” left out
# [10] = cited from earlier work
# S. aureus COL strain = test: Growth in BHI broth with fosfomycin, with or without 4FG6P; format: cell-based, Staphylococcus aureus
# Description: (§2) FIGS. 13A to 13D show a comparison of the antimicrobial activity of fosfomycin alone (FIG. 13A) and fosfomycin conjugated with 3FG6P or 4FG6P (FIG. 13B) against a fosfomycin resistant E. coli clinical isolate, and fosfomycin alone (FIG. 13C) and fosfomycin conjugated with 3FG6P or 4FG6P (FIG. 13D) against an S. aureus COL strain. The key in FIG. 13D applies to all graphs of FIGS. 13A-13D.
# (§3) To test whether 3FG6P and 4FG6P can potentiate the efficacy of fosfomycin, clinical fosfomycin resistant UTI E. coli isolates harboring the fosA gene and S. aureus COL strain were obtained. Overnight cultures of these bacteria were grown in brain heart infusion (BHI) broth diluted to 0.5 McFarland turbidity and inoculated into fresh BHI broth supplemented with various concentrations of fosfomycin alone or fosfomycin supplemented with 3FG6P for E. coli or 4FG6P for S. aureus (50 μM).
# Enterobacteriaceae = details: cited from earlier work
# [11] = test system: fosfomycin resistant UTI E. coli isolates harboring the fosA gene; test: Growth in BHI broth with fosfomycin, with or without 3FG6P; format: cell-based, Escherichia coli
# Description: as §2, §3
# [12] = test system: UhpT expression (HptARS system) in S. aureus LAC strain; test: uhpT promoter-LuxABCDE bioluminescent reporter for UhpT expression; format: cell-based, Staphylococcus aureus; details: 500 μM in brain heart infusion broth
# Description: FIG. 5 illustrates a LuxABCDE reporter system for monitoring expression of the UhpT by measuring bioluminescent light signals and strong and stable induction of UhpT expression by 3FG6P. S. aureus LAC strain harboring the LuxABCDE reporter system was cultured in a brain heart infusion broth supplemented with 500 μM glucose (Glc), glucose-6-phosphate (G6P), and 3-fluoro-glucose-6-phosphate (3FG6P) and the bioluminescent signal was monitored using a Cytation 5.
# To test whether 3FG6P can induce expression of the UhpT, we generated a bioluminescent reporter plasmid in which the promoter region of the uhpT was fused to the promoterless LuxABCDE operon (FIG. 5). See Francis K P, Joh D, Bellinger-Kawahara C, Hawkinson M J, Purchio T F, Contag P R. Monitoring bioluminescent Staphylococcus aureus infections in living mice using a novel luxABCDE construct. Infection and immunity. 2000; 68(6):3594-600. Epub 2000/05/19. PubMed PMID: 10816517; PMCID: PMC97648 and Karsi A, Lawrence M L. Broad host range fluorescence and bioluminescence expression vectors for Gram-negative bacteria. Plasmid. 2007; 57(3):286-95. Epub 2007/01/09. doi: 10.1016/j.plasmid.2006.11.002. PubMed PMID: 17207855 for monitoring of the expression of UhpT by measuring bioluminescent light signals.
# [13] = test system: vancomycin-resistant Enterococcus (VRE)faecalis and faecium; details: cited from earlier work
# Proteus penneri = details: cited from earlier work
# Pseudomonas aeruginosa = details: cited from earlier work
# Neisseria gonorrhea = details: cited from earlier work
# Klebsiella pneumoniae = details: cited from earlier work
# Escherichia coli = details: cited from earlier work
# [14] = test system: Stenotrophomonas maltophilia; details: cited from earlier work
# [15] = test system: Staphylococcus epidermidis (MRSE); details: cited from earlier work
# Acinetobacter spp = details: cited from earlier work
# [16] = test system: methicillin-resistant Staphylococcus aureus (MRSA); details: cited from earlier work
# [17] = BHI supplemented with 50 μM of 4FG6P
compound,measurement,setting,value
CC(=O)NC[C@H]1CN(c2ccc(N3CCN(C(=O)CCCOC4OC(COP(=O)(O)O)[C@@H](O)C(F)C4O)CC3)c(F)c2)C(=O)O1 (stereo partly shown) [Linezolid-3FG6P],bacterial counts in the bladder,[1],nearly completely cleared the infection
same,bacterial counts in the kidney,[1],completely cleared the infection
same,MIC,"[2]; Enterobacter cloacae, ATCC13047, read-out: MIC",< 2 µg/mL
same,MIC,"[3]; Klebsiella pneumoniae, ATCC35657, read-out: MIC",< 2 µg/mL
same,MIC,"[4]; Salmonella enterica, read-out: MIC",8 µg/mL
same,MIC,"[5]; Acinetobacter baumannii, ATCCBAA1605, read-out: MIC",< 2 µg/mL
same,MIC,"[6]; Klebsiella aerogenes, ATCC13048, read-out: MIC",4 µg/mL
same,MIC,"[7]; Staphylococcus aureus, ATCC25923, read-out: MIC",< 2 µg/mL
same,MIC,"[8]; Escherichia coli, ATCC25922, read-out: MIC",4 µg/mL
same,concentration range inhibiting growth,[9]; both Gram positive and Gram-negative pathogens,2 to 8 µg/mL
C[C@@H]1O[C@@H]1P(=O)(O)O [fosfomycin],metabolism in the liver,[10]; in vivo,not metabolized in the liver
same,oral bioavailability,[10]; oral administration,30-37%
same,fosfomycin concentration at which growth was completely inhibited,S. aureus COL strain; [17],32 µg/mL
same,growth at fosfomycin concentrations lower than 32 μg/ml,S. aureus COL strain; [17],significantly delayed
same,fosfomycin concentration up to which growth was allowed,"S. aureus COL strain; BHI, fosfomycin alone",up to 128 μg/ml
same,minimum inhibitory concentration (MIC) breakpoint,Enterobacteriaceae,8 to 32 µg/mL
same,fosfomycin concentration at which growth was completely inhibited,[11]; BHI supplemented with 50 μM of 3FG6P,≤ 2 µg/mL
same,fosfomycin concentration up to which growth was allowed,"[11]; BHI, fosfomycin alone",up to 128 μg/ml
O=C[C@H](O)[C@@H](O)[C@H](O)[C@H](O)COP(=O)(O)O [glucose-6-phosphate],duration of induced bioluminescent light signals,[12],8 h
(S)—N-[[3-[3-fluoro-4-(N-1-piperazinyl)phenyl]-2-oxo-5-oxazolidinyl]methyl]acetamide [Linezolid],MIC90,[13],1 to 4 µg/mL and 2 µg/mL
same,antimicrobial activity,Proteus penneri,not active
same,antimicrobial activity,Pseudomonas aeruginosa,not active
same,bacterial counts in the bladder,[1],did not reduce bacterial counts
same,bacterial counts in the kidney,[1],did not reduce bacterial counts
same,MIC90,Neisseria gonorrhea,16 µg/mL
same,antimicrobial activity,Klebsiella pneumoniae,not active
same,antimicrobial activity,Escherichia coli,not active
same,antimicrobial activity,[14],not active
same,MIC90,[15],1 to 4 µg/mL and 1 µg/mL
same,antimicrobial activity,Acinetobacter spp,not active
same,MIC,[2],>64 µg/mL
same,MIC,[3],>64 µg/mL
same,MIC,[4],>64 µg/mL
same,MIC,[5],>64 µg/mL
same,MIC,[6],>64 µg/mL
same,MIC,[7],<2 µg/mL
same,MIC,[7]; listed as linezolid,less than 2 μg/ml
same,MIC,[8],>64 µg/mL
same,concentration failing to inhibit growth,[9]; Gram-negative pathogens,64 µg/mL
same,MIC90,[16],1 to 4 µg/mL and 2 µg/mL
